Experimental data as given in PMC6767236, “Selective Cannabinoid 2 Receptor Agonists as Potential Therapeutic Drugs for the Treatment of Endotoxin-Induced Uveitis” (Molecules, 2019).

Columns and labels:
[1] = Plasma protein binding (equilibrium dialysis), human plasma; type: in vitro ADME; conditions: pH 7.4, read-out: Plasma Protein Binding: FREE Fraction human
Experimental: (§1) Pooled and frozen plasma from selected species were obtained from commercial suppliers […]
(§2) (human […] and mouse […]3-C57; BioreclamationIV, NY, USA). Teflon […]
(§3) equilibrium dialysis plates (96-well, 150 μL, half-cell capacity) and cellulose membranes (12–14 kDa molecular weight cut-off) were purchased from HT-Dialysis (Gales Ferry, Connecticut). Both biological matrix and phosphate buffer pH were adjusted to 7.4 on the day of the experiment. The reference substance was diazepam.
(§4) The determination of unbound compound was performed using a 96-well format equilibrium dialysis device with a molecular weight cut-off membrane of 12 to 14 kDa. […]
(§5) At equilibrium, the unbound drug concentration in the biological matrix compartment of the equilibrium dialysis apparatus is the same as the concentration of the compound in the buffer compartment. Thus, the percent unbound fraction was be calculated by determining the compound concentrations in the buffer and matrix compartments after dialysis as follows: % fraction unbound = 100 × buffer concentration after dialysis/matrix concentration after dialysis. […]
(§6) P-glycoprotein (permeability-glycoprotein (P-gp), also known as multidrug resistance protein 1) is the most studied and best characterized drug transporter. […] The effect of P-gp was measured by expressing the efflux ratio of the unidirectional A > B and B > A Papp values. […]

[2] = Plasma protein binding (equilibrium dialysis), mouse plasma; type: in vitro ADME; conditions: C57, pH 7.4, read-out: Plasma Protein Binding: FREE Fraction mouse
Experimental: as §1, §2, §3, §4, §5, §6

Q: Which results are given for `CC(C)(C)c1nc(N2CC[C@H](O)C2)c2nnn(Cc3nnnn3C3CC3)c2n1` [RO6871304, (3S)-1-{5-tert-butyl-3-[(1-cyclopropyl-1H-tetrazol-5-yl)methyl]-3H-[1,2, 3]triazolo[4,5-d]pyrimidin-7-yl}pyrrolidin-3-ol]?
A: fraction unbound at 5 h, 1000 nM [1]: 0.13; fraction unbound at 5 h, 1000 nM [2]: 0.031
